Test results: patent US20230279008A1, “PTGR2 INHIBITORS AND THEIR USE” (National Health Research Institutes, priority 2022, published 2023)

How the values were obtained:
human PTGR2 [1] = molecular target: T1, human PTGR2 (Homo sapiens (Human), UniProt Q8N8N7); assay: In vitro PTGR2 enzyme activity assay (NADPH decrease, Glo-NADPH luminescence); type: biochemical; details: 15-keto-PGE2 20 μM, NADPH 20 μM, pH 7.3
Procedure: In vitro enzyme activity was measured to determine the half maximal inhibitory concentration (IC50) of compounds of this invention as PTGR2 inhibitors. The reduction of 15-keto-PGE2 by PTGR2 requires NADPH. The decrease of NADPH during the reduction reaction indicates […] of PTGR2 and thus is used to calculate the IC50 of a PTGR2 inhibitor. […] The resultant mixture was pre-incubated at room temperature for 15 minutes. After the incubation, 15-keto-PGE2 was added to a final concentration of 20 μM, together with NADPH (20 μM, final concentration) and a Glo-NADPH reagent (commercially available from Promega Corporation, Madison, Wis.).

human PTGR2 [2] = molecular target: T1, human PTGR2; assay: Cell-based GAL4-PPAR luciferase reporter assay in HEK293T cells transfected with human PTGR2; details: UASG reporter, GAL4-PPAR and human PTGR2-Tag vectors, luciferase normalized to TK-Rluc
Procedure: HEK293T cells were seeded at 1×10^5 cells/well in a 24-well plate. […] Cells were treated and harvested in two batches, one after 24 hours and another after 48 hours. The luciferase activity was measured by a Luc-Pair™ Duo-Luciferase HS Assay Kit (commercially available from Promega Corporation) and normalized to the TK-Rluc reporter signal, which was recorded and used to calculate the EC50 value of a PTGR2 inhibitor.

T1 sequence (Q8N8N7 whole entry): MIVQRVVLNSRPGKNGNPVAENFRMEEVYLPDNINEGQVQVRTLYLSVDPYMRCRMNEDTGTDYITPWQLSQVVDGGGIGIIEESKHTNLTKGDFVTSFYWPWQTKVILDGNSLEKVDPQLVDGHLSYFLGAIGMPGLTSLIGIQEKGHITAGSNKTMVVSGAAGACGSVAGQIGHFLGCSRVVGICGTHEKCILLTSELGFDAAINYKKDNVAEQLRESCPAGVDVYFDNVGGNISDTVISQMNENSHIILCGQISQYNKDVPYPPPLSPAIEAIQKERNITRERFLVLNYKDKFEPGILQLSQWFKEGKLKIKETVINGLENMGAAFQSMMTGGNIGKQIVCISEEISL

SMILES | IC50 (human PTGR2 [1]) [nM] | EC50 (human PTGR2 [2]) [nM]
CC(C)c1cc(=O)[nH]c(SCC(=O)N2CCN(c3nccs3)[C@@H](C)C2)n1 [Compound 2, (S)-6-isopropyl-2-((2-(3-methyl-4-(thiazol-2-yl)piperazin-1-yl)-2-oxoethyl)thio)pyrimidin-4(3H)-one] | 43 | 112
COc1ccc(Cc2c(C)[nH]c3nc(C(C)N4CCN(c5ccccc5)CC4)nn3c2=O)c(F)c1 (centres unmarked) [Compound 5, 6-(2-fluoro-4-methoxybenzyl)-5-methyl-2-(1-(4-phenylpiperazin-1-yl)ethyl)-[1,2,4]triazolo[1,5-a]pyrimidin-7(4H)-one] | 12.6 | 40.5
Cc1[nH]c2nc(C(C)N3CCN(c4ccccc4)CC3)nn2c(=O)c1Cc1cccc(F)c1 (centres unmarked) [Compound 10, 6-(3-fluorobenzyl)-5-methyl-2-(1-(4-phenylpiperazin-1-yl)ethyl)-[1,2,4]triazolo[1,5-a]pyrimidin-7(4H)-one] | 7.9 | 77.4
Cc1[nH]c2nc(C(C)N3CCN(c4ccccc4)CC3)nn2c(=O)c1Cc1cccc(Cl)c1 (centres unmarked) [Compound 11, 6-(3-chlorobenzyl)-5-methyl-2-(1-(4-phenylpiperazin-1-yl)ethyl)-[1,2,4]triazolo[1,5-a]pyrimidin-7(3H)-one] | 54.3 | 61.4
Cc1[nH]c2nc(CN3CCN(c4ccccc4)CC3)nn2c(=O)c1Cc1cccc(Cl)c1 [Compound 12, 6-(3-chlorobenzyl)-5-methyl-2-((4-phenylpiperazin-1-yl)methyl)-[1,2,4]triazolo[1,5-a]pyrimidin-7(3H)-one] | 0.01 | 233
Cc1[nH]c2nc(C(C)N3CCN(c4ccccc4)CC3)nn2c(=O)c1Cc1cccc(C(F)(F)F)c1 (centres unmarked) [Compound 13, 5-methyl-2-(1-(4-phenylpiperazin-1-yl)ethyl)-6-(3-(trifluoromethyl)benzyl)-[1,2,4]triazolo[1,5-a]pyrimidin-7(4H)-one] | 61.9 | 19.2
Cc1[nH]c2nc(C(C)N3CCN(c4ccccc4)CC3)nn2c(=O)c1Cc1ccc(Cl)cc1 (centres unmarked) [Compound 20, 6-(4-chlorobenzyl)-5-methyl-2-(1-(4-phenylpiperazin-1-yl)ethyl)-[1,2,4]triazolo[1,5-a]pyrimidin-7(4H)-one] | 17.2 | 161
COc1ccccc1N1CCN(Cc2nc3[nH]c(C)c(Cc4cccc(Cl)c4)c(=O)n3n2)CC1 [Compound 32, 6-(3-chlorobenzyl)-2-((4-(2-methoxyphenyl)piperazin-1-yl)methyl)-5-methyl-[1,2,4]triazolo[1,5-a]pyrimidin-7(3H)-one] | 0.5 | 174
Cc1[nH]c2nc(C=C3CCN(c4ccccc4)CC3)nn2c(=O)c1Cc1cccc(Cl)c1 [Compound 34, 6-(3-chlorobenzyl)-5-methyl-2-((1-phenylpiperidin-4-ylidene)methyl)-[1,2,4]triazolo[1,5-a] pyrimidin-7(4H)-one] | 60.2 | 427
CCOc1ccccc1N1CCN(C(=O)CSc2nc(C(C)C)cc(=O)[nH]2)CC1 [Compound 63, 2-((2-(4-(2-ethoxyphenyl)piperazin-1-yl)-2-oxoethyl)thio)-6-isopropylpyrimidin-4(3H)-one] | 81.8 | 164

Continued by falling IC50 (human PTGR2 [1]), values first:

IC50 (human PTGR2 [1]) [nM] | EC50 (human PTGR2 [2]) [nM] | SMILES
86.9 | 119 | CCCc1cc(=O)[nH]c(SCC(=O)N2CCN(c3nccs3)CC2)n1 [Compound 46, 2-((2-oxo-2-(4-(thiazol-2-yl)piperazin-1-yl)ethyl)thio)-6-propylpyrimidin-4(3H)-one]
85 | 108 | CCCc1cc(=O)[nH]c(SCC(=O)N2CCN(c3ccccc3OC)[C@@H](C)C2)n1 [Compound 28, (S)-2-((2-(4-(2-methoxyphenyl)-3-methylpiperazin-1-yl)-2-oxoethyl)thio)-6-propylpyrimidin-4(3H)-one]
52.5 | 207 | COc1ccccc1N1CCN(C(=O)CSc2nc(C(C)C)cc(=O)[nH]2)C[C@H]1C [Compound 53, (R)-6-isopropyl-2-((2-(4-(2-methoxyphenyl)-3-methylpiperazin-1-yl)-2-oxoethyl)thio)pyrimidin-4(3H)-one]
33.9 | 64.5 | COc1ccc(Cc2c(C)[nH]c3nc(C(C)N4CCN(c5ccccc5)CC4)nn3c2=O)cc1F (centres unmarked) [Compound 15, 6-(3-fluoro-4-methoxybenzyl)-5-methyl-2-(1-(4-phenylpiperazin-1-yl)ethyl)-[1,2,4]triazolo[1,5-a]pyrimidin-7(4H)-one]
31.8 | 248 | Cc1[nH]c2nc(C(C)N3CCN(c4ccccc4)[C@H](C)C3)nn2c(=O)c1Cc1ccc(F)cc1 (stereo partly drawn) [Compound 54, 6-(4-fluorobenzyl)-5-methyl-2-(1-((R)-3-methyl-4-phenylpiperazin-1-yl)ethyl)-[1,2,4]triazolo [1,5-a]pyrimidin-7(4H)-one]
23.5 | 530 | Cc1[nH]c2nc(CN3CCN(c4nccs4)CC3)nn2c(=O)c1Cc1cccc(Cl)c1 [Compound 26, 6-(3-chlorobenzyl)-5-methyl-2-((4-(thiazol-2-yl)piperazin-1-yl)methyl)-[1,2,4]triazolo[1,5-a] pyrimidin-7(3H)-one]
12 | 104 | Cc1ccc(Cc2c(C)[nH]c3nc(C(C)N4CCN(c5ccccc5)CC4)nn3c2=O)cc1 (centres unmarked) [Compound 17, 5-methyl-6-(4-methylbenzyl)-2-(1-(4-phenylpiperazin-1-yl)ethyl)-[1,2,4]triazolo[1,5-a] pyrimidin-7(4H)-one]
8.9 | 56.9 | Cc1[nH]c2nc(C(C)N3CCN(c4ccccc4)CC3)nn2c(=O)c1Cc1ccc(F)cc1 (centres unmarked) [Compound 19, 6-(4-fluorobenzyl)-5-methyl-2-(1-(4-phenylpiperazin-1-yl)ethyl)-[1,2,4]triazolo[1,5-a]pyrimidin-7(4H)-one]
4.1 | 7 | Cc1[nH]c2nc(C(C)N3CCN(c4ccccc4)CC3)nn2c(=O)c1Cc1cc(F)c(F)cc1F (centres unmarked) [Compound 7, 5-methyl-2-(1-(4-phenylpiperazin-1-yl)ethyl)-6-(2,4,5-trifluorobenzyl)-[1,2,4]triazolo[1,5-a]pyrimidin-7(4H)-one]
1.7 | 280 | COc1ccc(Cc2c(C)[nH]c3nc(C(C)N4CCN(c5ccccc5)CC4)nn3c2=O)cc1 (centres unmarked) [Compound 18, 6-(4-methoxybenzyl)-5-methyl-2-(1-(4-phenylpiperazin-1-yl)ethyl)-[1,2,4]triazolo[1,5-a] pyrimidin-7(4H)-one]
0.2 | 874 | COc1ccccc1N1CCN(Cc2nc3[nH]c(C)c(Cc4ccc(Cl)cc4)c(=O)n3n2)CC1 [Compound 1, 6-(4-chlorobenzyl)-2-((4-(2-methoxyphenyl)piperazin-1-yl)methyl)-5-methyl-[1,2,4]triazolo[1,5-a]pyrimidin-7(4H)-one]
0.02 | 300 | Cc1[nH]c2nc(CN3CCN(c4ccccc4)CC3)nn2c(=O)c1Cc1cccc(Cl)c1F [Compound 6, 6-(3-chloro-2-fluorobenzyl)-5-methyl-2-((4-phenylpiperazin-1-yl)methyl)-[1,2,4]triazolo[1,5-a]pyrimidin-7(3H)-one]
